Laboratory results: US20150246888A1, “ENOYL REDUCTASE INHIBITORS WITH ANTIBACTERIAL ACTIVITY” (priority 2012, published 2015)
In brackets after ≈: the same amount, converted by molar mass. Read-outs that look alike come from different tables or passages of the source.

What was measured:
FtuFabI = FtuFabI (Francisella tularensis subsp. tularensis, UniProt Q5NGQ3); assay: biochemical; design: species or system F. tularensis subsp. tularensis Schu4
[1] = system: S. aureus (ATCC number 29213); assay: microbe, parasite or virus in culture; assay type: cell-based
S. aureus membrane = assay: Membrane depolarization as a function of time; assay type: cell-based
S. aureus = assay: Cell viability as a function of time (measured with depolarization); assay type: cell-based
[2] = system: F. tularensis, strain Utah 112; assay: microbe, parasite or virus in culture; assay type: cell-based; details: Francisella tularensis, UTAH112
[3] = system: B. anthracis, ΔANR strain; assay: microbe, parasite or virus in culture; assay type: cell-based; details: Bacillus anthracis
MRSA (ATCC number 43300) = assay: microbe, parasite or virus in culture; assay type: cell-based, methicillin-resistant Staphylococcus aureus; details: Staphylococcus aureus
[4] = system: E. coli (BW251113 strain); assay: microbe, parasite or virus in culture; assay type: cell-based; details: Escherichia coli
[5] = system: E. coli TolC-, an efflux defective mutant; assay: microbe, parasite or virus in culture; assay type: cell-based; details: Escherichia coli
[6] = read-out: IC50, Inhibition of FabI

FtuFabI, sequence (Q5NGQ3 1-260 limits assumed): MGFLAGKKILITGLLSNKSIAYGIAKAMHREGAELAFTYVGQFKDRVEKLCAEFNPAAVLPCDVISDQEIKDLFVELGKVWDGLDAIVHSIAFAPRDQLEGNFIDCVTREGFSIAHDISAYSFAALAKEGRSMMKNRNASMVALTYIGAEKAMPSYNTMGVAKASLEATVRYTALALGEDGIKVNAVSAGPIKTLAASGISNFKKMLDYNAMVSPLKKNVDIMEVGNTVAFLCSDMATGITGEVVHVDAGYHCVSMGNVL

| Compound | IC50 (FtuFabI; [6]) | MIC ([1]; Staphylococcus aureus) | Depolarization (done at 2X MIC) (S. aureus membrane) | Cell viability (done at 2X MIC) (S. aureus) | IC50 (FtuFabI) | MIC [2] | MIC [3] | MIC (MRSA (ATCC number 43300)) | MIC [4] | MIC [5] | MBC [2] | MBC [3] | MIC [1] | MBC ([1]; Staphylococcus aureus) | MBC (MRSA (ATCC number 43300)) | MBC [5] |
| --- | --- | --- | --- | --- | --- | --- | --- | --- | --- | --- | --- | --- | --- | --- | --- | --- |
| Cc1cc2ncn(Cc3ccc(Cl)c(Cl)c3)c2cc1C [Compound 1, 1-(3,4-dichlorobenzyl)-5,6-dimethyl-1H-benzo[d]imidazole] | 300 nM | 25 µg/mL (≈ 81.9 µM) | Depolarization seen initially in the first 60 min | Bactericidal intially but cells recover and compound is not lethal overnight | – | – | – | – | – | – | – | – | – | – | – | – |
| Nc1ccc(Cn2cnc3cc4c(cc32)CCC4)cc1 [Compound 21, 4-((6,7-dihydroindeno[5,6-d]imidazol-1(5H)-yl)methyl)aniline] | – | > 12.5 µg/mL | – | – | 12000 nM | > 12.5 µg/mL | > 12.5 µg/mL | > 12.5 µg/mL | > 12.5 µg/mL | > 12.5 µg/mL | – | – | – | – | – | – |
| CC1(C)Cc2cc3ncn(Cc4ccc5c(c4)CC[C@@H]5O)c3cc2C1 [Compound 15, (S)-5-((6,6-dimethyl-6,7-dihydroindeno[5,6-d]imidazol-1(5H)-yl)methyl)-2,3-dihydro-1H-inden-1-ol] | – | > 12.5 µg/mL | – | – | 41 nM | > 12.5 µg/mL | > 12.5 µg/mL | > 12.5 µg/mL | > 12.5 µg/mL | > 12.5 µg/mL | – | – | – | – | – | – |
| COc1ccc(Cn2cnc3cc4c(cc32)CC(C)(C)C4)cc1C [Compound 11, 1-(4-methoxy-3-methylbenzyl)-6,6-dimethyl-1,5,6,7-tetrahydroindeno[5,6-d]imidazole] | – | > 12.5 µg/mL | – | – | 14 nM | > 12.5 µg/mL | > 12.5 µg/mL | > 12.5 µg/mL | > 12.5 µg/mL | > 12.5 µg/mL | – | – | – | – | – | – |
| CC(c1ccc(Cl)c(Cl)c1)n1cnc2cc3c(cc21)CCC3 (centres unmarked) [Compound 3, 1-(1-(3,4-dichlorophenyl)ethyl)-1,5,6,7-tetrahydroindeno[5,6-d]imidazole] | – | 5.5 µg/mL (≈ 16.6 µM) | Initially depolarizing (in first 60 min) but cells ‘recover’ and regain polarization compared to control with no compound | Bacteriostatic | 43 nM | 3.9 µg/mL (≈ 11.8 µM) | 3.9 µg/mL (≈ 11.8 µM) | 6.3 µg/mL (≈ 19 µM) | > 12.5 µg/mL | 3.1 µg/mL (≈ 9.36 µM) | 9.4 µg/mL (≈ 28.4 µM) | 4.7 µg/mL (≈ 14.2 µM) | 5.5 µg/mL (≈ 16.6 µM) | > 25 µg/mL | 12.5 µg/mL (≈ 37.7 µM) | 12.5 µg/mL (≈ 37.7 µM) |
| CC1(C)S[C@@H]2[C@H](NC(=O)[C@H](N)c3ccccc3)C(=O)N2[C@H]1C(=O)O [Ampicillin, reference compound] | – | – | No depolarization | bactericidal | – | – | – | – | – | – | – | – | 0.4 µg/mL (≈ 1.14 µM) | – | – | – |
| N#CC(C#N)=NNc1cccc(Cl)c1 [CCCP, carbonyl cyanide m-chlorophenylhydrazone, reference compound] | – | 1 µg/mL (≈ 4.89 µM) | Highly depolarizing | bactericidal | – | – | – | – | – | – | – | – | – | – | – | – |
| COc1ccc(Cn2cnc3cc4c(cc32)CC(C)(C)C4)cc1OC [Compound 12, 1-(3,4-dimethoxybenzyl)-6,6-dimethyl-1,5,6,7-tetrahydroindeno[5,6-d]imidazole] | – | > 12.5 µg/mL | – | – | 71 nM | > 12.5 µg/mL | > 12.5 µg/mL | > 12.5 µg/mL | > 12.5 µg/mL | > 12.5 µg/mL | – | – | – | – | – | – |
| COc1ccc(Cn2cnc3cc4c(cc32)CCC4)cc1C [Compound 8, 1-(4-methoxy-3-methylbenzyl)-1,5,6,7-tetrahydroindeno[5,6-d]imidazole] | 5 nM | > 12.5 µg/mL | – | – | – | 5.5 µg/mL (≈ 18.8 µM) | > 12.5 µg/mL | > 12.5 µg/mL | > 12.5 µg/mL | 12.5 µg/mL (≈ 42.8 µM) | 12.5 µg/mL (≈ 42.8 µM) | – | – | – | – | – |
| CC1(C)Cc2cc3ncn(Cc4ccc5c(c4)OCO5)c3cc2C1 [Compound 13, 1-(benzo[d][1,3]dioxol-5-ylmethyl)-6,6-dimethyl-1,5,6,7-tetrahydroindeno[5,6-d]imidazole] | – | > 12.5 µg/mL | – | – | 29 nM | > 12.5 µg/mL | > 12.5 µg/mL | > 12.5 µg/mL | > 12.5 µg/mL | 12.5 µg/mL (≈ 39 µM) | – | – | – | – | – | – |
| CC(c1ccc(Cl)c(Cl)c1)n1cnc2cc3c(cc21)CC(C)(C)C3 (centres unmarked) [Compound 5, 1-(1-(3,4-dichlorophenyl)ethyl)-6,6-dimethyl-1,5,6,7-tetrahydroindeno[5,6-d]imidazole] | 240 nM | 4.7 µg/mL (≈ 13.1 µM) | – | – | – | > 12.5 µg/mL | > 12.5 µg/mL | 4.7 µg/mL (≈ 13.1 µM) | > 12.5 µg/mL | > 12.5 µg/mL | – | – | – | > 12.5 µg/mL | > 12.5 µg/mL | – |
| c1cc2c(cc1Cn1cnc3cc4c(cc31)CCC4)OCO2 [Compound 19, 1-(benzo[d][1,3]dioxol-5-ylmethyl)-1,5,6,7-tetrahydroindeno[5,6-d]imidazole] | – | 9.4 µg/mL (≈ 32.2 µM) | – | – | 2200 nM | 6.3 µg/mL (≈ 21.6 µM) | > 12.5 µg/mL | 10.9 µg/mL (≈ 37.3 µM) | > 12.5 µg/mL | > 12.5 µg/mL | 37.5 µg/mL (≈ 128 µM) | – | – | > 25 µg/mL | > 25 µg/mL | – |
| CC(c1ccc(Cl)c(Cl)c1)n1cnc2cc3c(cc21)COC3 (centres unmarked) [Compound 6, 1-(1-(3,4-dichlorophenyl)ethyl)-5,7-dihydro-1H-isobenzofuro[5,6-d]imidazole] | 890 nM | > 12.5 µg/mL | – | – | – | > 12.5 µg/mL | > 12.5 µg/mL | > 12.5 µg/mL | > 12.5 µg/mL | > 12.5 µg/mL | – | – | – | – | – | – |
| COc1ccc(Cn2cnc3cc4c(cc32)CCC4)cc1 [Compound 20, 1-(4-methoxybenzyl)-1,5,6,7-tetrahydroindeno[5,6-d]imidazole] | – | > 12.5 µg/mL | – | – | 840 nM | 5.5 µg/mL (≈ 19.8 µM) | > 12.5 µg/mL | > 12.5 µg/mL | > 12.5 µg/mL | > 12.5 µg/mL | 37.5 µg/mL (≈ 135 µM) | – | – | – | – | – |
| COc1ccc(Cn2cnc3cc4c(cc32)CCC4)cc1OC [Compound 23, 1-(3,4-dimethoxybenzyl)-1,5,6,7-tetrahydroindeno[5,6-d]imidazole] | – | – | – | – | 5900 nM | – | – | – | – | – | – | – | – | – | – | – |
| COc1ccc(Cn2cnc3cc(C)c(C)cc32)cc1 [Compound 16, 1-(4-methoxybenzyl)-5,6-dimethyl-1H-benzo[d]imidazole] | – | – | – | – | 4700 nM | – | – | – | – | – | – | – | – | – | – | – |
| Oc1cc(Cl)ccc1Oc1ccc(Cl)cc1Cl [Triclosan, reference compound] | – | 0.4 µg/mL (≈ 1.38 µM) | Strongly depolarizing | Possibly bacteriostatic initially but then bactericidal after overnight incubation | – | – | – | – | – | – | – | – | – | – | – | – |
| Cc1cc2ncn(Cc3ccc(O)c(C)c3)c2cc1C [Compound 18, 4-((5,6-dimethyl-1H-benzo[d]imidazol-1-yl)methyl)-2-methylphenol] | – | – | – | – | 1300 nM | – | – | – | – | – | – | – | – | – | – | – |
| Cc1cc2ncn(Cc3ccc4c(c3)OCO4)c2cc1C [Compound 17, 1-(benzo[d][1,3]dioxol-5-ylmethyl)-5,6-dimethyl-1H-benzo[d]imidazole] | – | – | – | – | 4400 nM | – | – | – | – | – | – | – | – | – | – | – |
| COc1ccc(Cn2cnc3cc(C)c(C)cc32)cc1C [Compound 7, 1-(4-methoxy-3-methylbenzyl)-5,6-dimethyl-1H-benzo[d]imidazole] | – | > 12.5 µg/mL | – | – | 250 nM | > 12.5 µg/mL | > 12.5 µg/mL | > 12.5 µg/mL | > 12.5 µg/mL | 12.5 µg/mL (≈ 44.6 µM) | – | – | – | – | – | – |
| Cc1cc2ncn(C(C)c3ccc(Cl)c(Cl)c3)c2cc1C (centres unmarked) [Compound 2, 1-(1-(3,4-dichlorophenyl)ethyl)-5,6-dimethyl-1H-benzo[d]imidazole] | 370 nM | 12.5 µg/mL (≈ 39.2 µM) | – | – | – | > 12.5 µg/mL | 12.5 µg/mL (≈ 39.2 µM) | 12.5 µg/mL (≈ 39.2 µM) | > 12.5 µg/mL | 6.3 µg/mL (≈ 19.7 µM) | – | – | – | – | – | 12.5 µg/mL (≈ 39.2 µM) |
| COc1ccc(Cn2cnc3cc4c(cc32)CCCC4)cc1 [Compound 24, 1-(4-methoxybenzyl)-5,6,7,8-tetrahydro-1H-naphtho[2,3-d]imidazole] | – | > 12.5 µg/mL | – | – | 330 nM | 4.7 µg/mL (≈ 16.1 µM) | > 12.5 µg/mL | > 12.5 µg/mL | > 12.5 µg/mL | 12.5 µg/mL (≈ 42.8 µM) | 18.8 µg/mL (≈ 64.3 µM) | – | – | – | – | > 25 µg/mL |
| COc1ccc(Cn2cnc3cc(C)c(C)cc32)cc1OC [Compound 22, 1-(3,4-dimethoxybenzyl)-5,6-dimethyl-1H-benzo[d]imidazole] | – | – | – | – | 7600 nM | – | – | – | – | – | – | – | – | – | – | – |
